Source: patent US20070231296A1, “Method of Combating Fruit Flies” (priority 2004, published 2007)

Legend:
[1] = tested on: Bactrocera tryoni; test: Large field cage trial with a paper mâché block containing fipronil plus Cue-lure; assay type: in vivo; details: field cage 4×4×2.5 m, single paper mâché block with 20 milligrams of fipronil plus Cue-lure per cage
Text: In a large field cage (4×4×2.5 m) trial, a single block of paper mâché containing 20 milligrams of fipronil plus Cue-lure was used per cage.
After 2 days of exposure, over 90% mortality of male and female Bactrocera tryoni was achieved, after 3 days even over 95% mortality of males and females.
Dead females were collected from the floor of the cage and dissected.

[2] = tested on: fruit flies; test: Contact of male fruit flies with AMULET parapheromone stations and transfer to females; assay type: in vivo; details: AMULET station, 20 mg fipronil per station; depending on length of contact
Protocol: AMULET™ parapheromone stations use fipronil at a very low concentration (20 mg per station) that has no repulsion to male flies landing on the device allowing them to freely imbibe from its surface and walk over it for long periods. Female fruit flies of the same species are not attracted by the pheromone and do no show any interest in the stations.
Through this contact they contaminate the integument of the female that subsequently dies the following day.

N#Cc1nn(-c2c(Cl)cc(C(F)(F)F)cc2Cl)c(N)c1[S+]([O-])C(F)(F)F (stereo not drawn) [fipronil]
mortality of male and female Bactrocera tryoni ([1]; after 2 days of exposure): over 90%
mortality of males and females ([1]; after 3 days): over 95%
time after contact until male fruit flies die [2]: 3 to 48 h
